These results are taken from US20090018166A1, “New Pyridine Analogues X 161” (ASTRAZENECA AB, priority 2007, published 2009).

The target in the test is T1, P2Y12 receptor (Homo sapiens, UniProt Q9H244).
T1 construct: expressed in transfected cells; host or cells: CHO cells (membranes)
The experiment in a line: Functional inhibition of 2-Me-S-ADP induced P2Y12 signalling (35S-GTPγS binding, membranes from P2Y12 transfected CHO-cells). The class given is biochemical. To be noted: 35S-GTPγS, EC80 of 2-methyl-thio-adenosine diphosphate, P2Y12 CHO membranes; value given in each example; read-out: GTPγS(IC50 μM). On the procedure:
Functional inhibition of- the P2Y12 receptor can be measured by in vitro assays using cell membranes from P2Y12 transfected CHO-cells, the methodology is indicated below.
Functional inhibition of 2-Me-S-ADP induced P2Y12 signalling: 5 μg of membranes were diluted in 200 μl of 200 mM NaCl, 1 mM MgCl2, 50 mM HEPES (pH 7.4), 0.01% BSA, 30 μg/ml saponin and 10 μM GDP. To this was added an EC80 concentration of agonist (2-methyl-thio-adenosine diphosphate), the required concentration of test compound and 0.1 μCi ^35S-GTPγS. The reaction was allowed to proceed at 30° C. for 45 min. Samples were then transferred on to GF/B filters using a cell harvester and washed with wash buffer (50 mM Tris (pH 7.4), 5 mM MgCl2, 50 mM NaCl). Filters were then covered with scintilant and counted for the amount of ^35S-GTPγS retained by the filter. Maximum activity was that determined in the presence of the agonist and minimum activity in the absence of the agonist following subtraction of the value determined for non-specific activity. The effect of compounds at various concentrations was plotted according to the equation
y=A+((B−A)/(1+((C/x)̂D)))
and IC50 estimated where A is the bottom plateau of the curve i.e. the final minimum y value B is the top of the plateau of the curve i.e. the final maximum y value C is the x value at the middle of the curve. This represents the log EC50 value when A+B=100 D is the slope factor. x is the original known x values. Y is the original known y values.

T1 sequence (Q9H244 whole entry): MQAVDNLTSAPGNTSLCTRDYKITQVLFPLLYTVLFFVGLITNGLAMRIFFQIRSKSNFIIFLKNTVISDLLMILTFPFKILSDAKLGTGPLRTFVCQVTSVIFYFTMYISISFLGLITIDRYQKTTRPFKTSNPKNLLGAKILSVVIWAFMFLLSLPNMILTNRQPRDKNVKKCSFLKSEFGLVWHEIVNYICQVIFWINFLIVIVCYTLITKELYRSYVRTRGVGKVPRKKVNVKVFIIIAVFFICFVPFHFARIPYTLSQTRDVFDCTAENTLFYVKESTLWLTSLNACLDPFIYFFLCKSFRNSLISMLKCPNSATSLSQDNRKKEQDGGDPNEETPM

`C=CCCC(=O)c1cc(Cl)c(N2CCC(C(=O)NS(=O)(=O)Cc3ccccc3)CC2)nc1CN1CCCC1=O` [Example 51, N-(benzylsulfonyl)-1-{3-chloro-6-[(2-oxopyrrolidin-1-yl)methyl]-5-pent-4-enoylpyridin-2-yl}piperidine-4-carboxamide]: the IC50 was determined as 0.069 µM. The result for `CCCC(=O)c1cc(Cl)c(N2CCC(C(=O)NS(=O)(=O)CC3CCCCC3)CC2)nc1CN1CCCC1=O` [Example 52, 1-{5-butyryl-3-chloro-6-[(2-oxopyrrolidin-1-yl)methyl]pyridin-2-yl}-N-[(cyclohexylmethyl)sulfonyl]piperidine-4-carboxamide] reads 0.231 µM; that for `CCCC(=O)c1cc(Cl)c(N2CCC(C(=O)NS(=O)(=O)Cc3ccc(F)cc3F)CC2)nc1CN1CCCC1=O` [Example 53, 1-{5-butyryl-3-chloro-6-[(2-oxopyrrolidin-1-yl)methyl]pyridin-2-yl}-N-[(2,4-difluorobenzyl)sulfonyl]piperidine-4-carboxamide], 0.032 µM; that for `CCCCC(=O)c1cc(Cl)c(N2CCC(C(=O)NS(=O)(=O)CC3CCCC3)CC2)nc1CN1CCCC1=O` [Example 54, 1-{3-chloro-6-[(2-oxopyrrolidin-1-yl)methyl]-5-pentanoylpyridin-2-yl}-N-[(cyclopentylmethyl)sulfonyl]piperidine-4-carboxamide], 0.938 µM. For the compound `CCCCC(=O)c1cc(Cl)c(N2CCC(C(=O)NS(=O)(=O)Cc3ccc(F)cc3F)CC2)nc1CN1CCCC1=O` [Example 55, 1-{3-chloro-6-[(2-oxopyrrolidin-1-yl)methyl]-5-pentanoylpyridin-2-yl}-N-[(2,4-difluorobenzyl)sulfonyl]piperidine-4-carboxamide], the IC50 came to 0.226 µM. The result for `CCCCC(=O)c1cc(Cl)c(N2CCC(C(=O)NS(=O)(=O)N(C)c3ccc(F)cc3)CC2)nc1CN1CCCC1=O` [Example 56, 1-{3-chloro-6-[(2-oxopyrrolidin-1-yl)methyl]-5-pentanoylpyridin-2-yl}-N-{[(4-fluorophenyl)(methyl)amino]sulfonyl}piperidine-4-carboxamide] reads 0.247 µM; that for `CCCCC(=O)c1cc(Cl)c(N2CCC(C(=O)NS(=O)(=O)Cc3ccccc3)CC2)nc1CN1CCCC1=O` [Example 57, N-(benzylsulfonyl)-1-{3-chloro-6-[(2-oxopyrrolidin-1-yl)methyl]-5-pentanoylpyridin-2-yl}piperidine-4-carboxamide], 0.079 µM; that for `N#Cc1cc(C(=O)CCC(F)(F)F)c(CN2CCCC2=O)nc1N1CCC(C(=O)NS(=O)(=O)Cc2ccccc2)CC1` [Example 58, N-(benzylsulfonyl)-1-{3-cyano-6-[(2-oxopyrrolidin-1-yl)methyl]-5-(4,4,4-trifluorobutanoyl)pyridin-2-yl}piperidine-4-carboxamide], 0.084 µM.

`CCCCC(=O)c1cc(Cl)c(N2CCC(C(=O)NS(=O)(=O)Cc3ccc(Cl)cc3)CC2)nc1CN1CCCC1=O` [Example 59, N-[(4-chlorobenzyl)sulfonyl]-1-{3-chloro-6-[(2-oxopyrrolidin-1-yl)methyl]-5-pentanoylpyridin-2-yl}piperidine-4-carboxamide]: the IC50 turned out to be 0.132 µM. The result for `CCCCC(=O)c1cc(Cl)c(N2CCC(C(=O)NS(=O)(=O)C(C)c3ccccc3)CC2)nc1CN1CCCC1=O` (centres unmarked) [Example 60, 1-{3-chloro-6-[(2-oxopyrrolidin-1-yl)methyl]-5-pentanoylpyridin-2-yl}-N-[(1-phenylethyl)sulfonyl]piperidine-4-carboxamide] reads 0.268 µM; that for `CCCCC(=O)c1cc(C#N)c(N2CCC(C(=O)NS(=O)(=O)C(C)c3ccccc3)CC2)nc1CN1CCCC1=O` (centres unmarked) [Example 61, 1-{3-cyano-6-[(2-oxopyrrolidin-1-yl)methyl]-5-pentanoylpyridin-2-yl}-N-[(1-phenylethyl)sulfonyl]piperidine-4-carboxamide], 0.033 µM.
